Source: paper PMC6150270, “Solvent and Copper Ion-Induced Synthesis of Pyridyl–Pyrazole-3-One Derivatives: Crystal Structure, Cytotoxicity” (Molecules : A Journal of Synthetic Chemistry and Natural …, 2017)

What was measured:
A549 tumor cell line = assay: MTT cytotoxicity assay, A549; assay type: cell-based; conditions: Homo sapiens; for IC50: 48 h, MTT, mean ± SD; for inhibition at 20 µM: complexes 1-5 at 20 μM, incubation 48 h, read-out: Inhibition rate A549
Description: (§1) The cytotoxicities of compounds 1–5 against the human tumor cell lines BEL-7404, HepG2, NCI-H460, T-24 and A549, as well as human normal liver cell line HL-7702, were tested by the MTT assay. Cisplatin was also tested for comparison.
(§2) All the cells were maintained in DMEM (Dulbecco’s Modified Eagle Medium) supplemented with 10% fetal calf serum, 100 units/mL ampicillin and […] streptomycin sulfate at 37 °C in a humidified atmosphere under 5% CO2. Compounds 1–5 were dissolved in DMSO at a concentration of 2.0 mM stock solution. The stock was diluted by PBS to the required concentration immediately before use.
(§3) Cisplatin was prepared according to a literature procedure. The cells were all grown in 96-well, flat-bottomed microtiter plates. Compounds 1–5 and cisplatin were dissolved in the culture medium (containing 1% DMSO) to a concentration of 100 μg/mL. The resultant solutions were subsequently added to a set of wells. The wells for control contained the supplemented medium with 1% DMSO. The microtiter plates were incubated at 37 °C in a humidified atmosphere of 5% CO2/95% air for a further 48 h. At the end of each incubation period, the 3-(4,5-dimethylthiazol-2-yl)-2,5-diphenyltetrazolium bromide (MTT) solution (10 μL, 5 mg/mL) was added into each well and the cultures were further incubated for 6 h under the same conditions. After the removal of the supernatant, DMSO (100 μL) was added to dissolve the formazan crystals. The absorbance of the solution was read by an enzyme-labeled microplate reader with 490/630 nm double wavelength measurement. The cytotoxicity was evaluated based on the percentage of cell survival in a dose-dependent manner relative to the negative control. The final IC50 values were calculated by the Bliss method (n = 5). All tests were repeated in at least three independent trials.

[1] = system: normal liver cell line HL-7702; assay: MTT cytotoxicity assay, HL-7702; assay type: cell-based, human; conditions: normal liver cells; for IC50: 48 h, MTT, mean ± SD; for inhibition at 20 µM: read-out: Inhibition rate HL-7702
Description: as §1, §2, §3

BEL-7404 tumor cell line = assay: MTT cytotoxicity assay, BEL-7404; assay type: cell-based, human; conditions: for IC50: 48 h, MTT, mean ± SD; for inhibition at 20 µM: read-out: Inhibition rate BEL-7404
Description: as §1, §2, §3

HepG2 tumor cell line = assay: MTT cytotoxicity assay, HepG2; assay type: cell-based, human; conditions: for IC50 / inhibition at 20 µM: Homo sapiens, HepG2; for IC50: 48 h, mean ± SD; for IC50 / Growth inhibition on HepG2 cell lines (in words): MTT; for inhibition at 20 µM: read-out: Inhibition rate HepG2; for Cytotoxicity toward HepG2 enhanced compared with normal liver cell HL-7702: ratio of IC50 HL-7702 to IC50 HepG2
Description: as §1, §2, §3

T-24 tumor cell line = assay: MTT cytotoxicity assay, T-24; assay type: cell-based, human; conditions: for IC50: 48 h, MTT, mean ± SD; for inhibition at 20 µM: read-out: Inhibition rate T-24
Description: as §1, §2, §3

NCI-H460 tumor cell line = assay: MTT cytotoxicity assay, NCI-H460; assay type: cell-based, human; conditions: for IC50: 48 h, MTT, mean ± SD; for inhibition at 20 µM: read-out: Inhibition rate NCI-H460
Description: as §1, §2, §3

[2] = Homo sapiens, L02, complexes 1-5 at 20 μM, incubation 48 h
[3] = Homo sapiens, BEL-7404, complexes 1-5 at 20 μM, incubation 48 h
[4] = complexes 1-5 at 20 μM, incubation 48 h
[5] = Homo sapiens, complexes 1-5 at 20 μM, incubation 48 h
[6] = Homo sapiens, NCI-H460, complexes 1-5 at 20 μM, incubation 48 h

Row | SMILES | IC50 (A549 tumor cell line) [µM] | inhibition at 20 µM (A549 tumor cell line) [%] | IC50 ([1]; Homo sapiens, L02) [µM] | inhibition at 20 µM [1, 2] [%] | IC50 (BEL-7404 tumor cell line; Homo sapiens, BEL-7404) [µM] | inhibition at 20 µM (BEL-7404 tumor cell line; [3]) [%] | IC50 (HepG2 tumor cell line) [µM] | inhibition at 20 µM (HepG2 tumor cell line; [4]) [%] | Cytotoxicity toward HepG2 enhanced compared with normal liver cell HL-7702 (HepG2 tumor cell line) [times] | IC50 (T-24 tumor cell line; Homo sapiens) [µM] | inhibition at 20 µM (T-24 tumor cell line; [5]) [%] | IC50 (NCI-H460 tumor cell line; Homo sapiens, NCI-H460) [µM] | inhibition at 20 µM (NCI-H460 tumor cell line; [6]) [%] | Growth inhibition on HepG2 cell lines (in words) (HepG2 tumor cell line) | other results
1 | COC(=O)C1=NN(c2cccc(Br)n2)C(=O)C1(c1c(C(=O)OC)nn(-c2cccc(Br)n2)c1O)c1c(C(=O)OC)nn(-c2cccc(Br)n2)c1O [Compound 3, Trimethyl 1,1′,1′′-tris(6-bromo-2-pyridinyl)-5,5′′-dihydroxy-5′-oxo-1′,5′-dihydro-1H,1′′H-4,4′: 4′,4′′-terpyrazole-3,3′,3′′-tricarboxylate] | 33.6 ± 1.07 | 33.3 ± 2.51 | 151 ± 3.06 | 22.2 ± 1.05 | 112 ± 2.78 | 24.6 ± 0.75 | 54.7 ± 0.81 | 41 ± 1.27 | 2.76 | 85.38 ± 0.67 | 32 ± 0.89 | 38 ± 0.89 | 42.5 ± 2.27 | – | –
2 | COC(=O)c1cc(O)n(-c2cccc(Br)n2)n1 [Compound 2, Methyl 1-(6-bromo-2-pyridinyl)-5-hydroxy-1H-pyrazole-3-carboxylate] | 44.8 ± 1.12 | 22.4 ± 1.74 | 118 ± 3.34 | 24.7 ± 0.59 | 125 ± 1.87 | 20.2 ± 1.18 | 29.8 ± 0.91 | 43 ± 0.74 | 3.98 | 46.2 ± 0.87 | 42.5 ± 0.96 | 40.7 ± 0.54 | 38 ± 0.62 | weakly growth inhibition | –
3 | COC(=O)c1cc(OC(C)=O)n(-c2cccc(Br)n2)n1 [Compound 1, Methyl 5-(acetyloxy)-1-(6-bromo-2-pyridinyl)-1H-pyrazole-3-carboxylate] | 37.6 ± 1.03 | 31.1 ± 1.39 | 111 ± 2.84 | 26.5 ± 0.42 | 66.5 ± 1.13 | 38.2 ± 1.99 | 37.1 ± 0.54 | 47.21 ± 0.44 | 2.98 | 70.5 ± 1.33 | 37.6 ± 1.72 | 109 ± 1.65 | 34 ± 1.76 | weakly growth inhibition | –
4 | COC(=O)C1=NN(c2cccc(Br)n2)C2(C(C(=O)O)=NN(c3cccc(Br)n3)C2O)C1(C(=O)OC)c1c(C(=O)OC)nn(-c2cccc(Br)n2)c1O (stereo not shown) [Compound 5, 1,8-Bis(6-bromopyridin-2-yl)-4-(1-(6-bromopyridin-2-yl)-5-hydroxy-3-(methoxycarbonyl)-1H-pyrazol-4-yl)-9-hydroxy-3,4-bis(methoxycarbonyl)-1,2,7,8-tetraazaspiro[4.4]nona-2,6-diene-6-carboxylic acid] | 77.56 ± 0.72 | 29.4 ± 0.65 | 102.3 ± 0.85 | 26.9 ± 0.79 | 84.3 ± 1.01 | 27.2 ± 0.94 | 175.2 ± 1.1 | 19.5 ± 1.05 | – | 76 ± 1.16 | 35.9 ± 1.26 | 94.56 ± 0.41 | 25.4 ± 0.34 | – | –
5 | COC(=O)C1=NN(c2cccc(Br)n2)C2(C(C(=O)OC)=NN(c3cccc(Br)n3)C2O)C1(C(=O)OC)c1c(C(=O)OC)nn(-c2cccc(Br)n2)c1O (stereo not shown) [Compound 4, Trimethyl-1,8-bis(6-bromopyridin-2-yl)-4-(1-(6-bromopyridin-2-yl)-5-hydroxy-3-(methoxycarbonyl)-1H-pyrazol-4-yl)-9-hydroxy-1,2,7,8-tetraazaspiro[4.4]nona-2,6-diene-3,4,6-tricarboxylate] | 28.1 ± 1.01 | 40.2 ± 0.44 | 96.14 ± 0.49 | 35.1 ± 1.34 | 41.81 ± 0.37 | 39.6 ± 1.43 | 10.7 ± 0.38 | 53.3 ± 0.92 | 9.02 | 42.9 ± 1.41 | 43.2 ± 1.15 | 66.48 ± 0.57 | 33.6 ± 1.38 | – | Increase in HepG2 cytotoxicity compared to the free ligand 5 (HepG2 tumor cell line; IC50 of 5 relative to IC50 of 4, HepG2): approximately 16.44 fold
6 | N.N.[Cl][Pt][Cl] [Cisplatin, reference compound] | – | – | – | – | – | – | – | – | – | – | – | – | – | – | IC50 [1]: 5.63 ± 0.32 µM; Inhibition rate HL-7702 [1, 4]: 73.58±2.30; IC50 (BEL-7404 tumor cell line): 12.4 ± 0.38 µM; Inhibition rate BEL-7404 (BEL-7404 tumor cell line; [4]): 55.15±1.18; Inhibition rate HepG2 (HepG2 tumor cell line; [4]): 60.63±0.99; IC50 (T-24 tumor cell line): 28.1 ± 1.88 µM; Inhibition rate T-24 (T-24 tumor cell line; [4]): 47.58±2.65; IC50 (NCI-H460 tumor cell line): 18.9 ± 1.02 µM; Inhibition rate NCI-H460 (NCI-H460 tumor cell line; [4]): 50.88±3.69
